Assay results as given in patent publication US11254686B1 (Corvus Pharmaceuticals, Inc., priority 2017, dated 2022).

Legend:
adenosine A2B receptor = adenosine A2B receptor (Homo sapiens (Human), UniProt P29275); experiment: Adenosine receptor activity assay (Table 1), A2B activity; type: biochemical; settings: for IC50: read-out: Ave A2B cAMP IC50
adenosine A2A receptor = adenosine A2A receptor (Homo sapiens (Human), UniProt P29274); experiment: Adenosine receptor activity assay (Table 1), A2A activity; type: biochemical; settings: read-out: Ave A2A cAMP IC50
Chain of adenosine A2A receptor (P29274 whole entry): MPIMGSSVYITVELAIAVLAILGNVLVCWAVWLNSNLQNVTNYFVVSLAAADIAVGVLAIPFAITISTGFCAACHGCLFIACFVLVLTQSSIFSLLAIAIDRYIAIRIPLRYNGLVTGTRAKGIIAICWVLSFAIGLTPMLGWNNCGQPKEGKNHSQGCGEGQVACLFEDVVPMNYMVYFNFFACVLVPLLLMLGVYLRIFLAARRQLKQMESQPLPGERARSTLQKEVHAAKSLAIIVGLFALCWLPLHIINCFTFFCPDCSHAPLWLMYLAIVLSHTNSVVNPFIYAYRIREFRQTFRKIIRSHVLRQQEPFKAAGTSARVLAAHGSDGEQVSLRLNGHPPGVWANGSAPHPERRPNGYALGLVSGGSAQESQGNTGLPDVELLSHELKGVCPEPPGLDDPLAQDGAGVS

[1] = A2A activity to the A2B activity, A2A/A2B
[2] = A2A activity to A2B activity (A2A/A2B)

Chain of adenosine A2B receptor (P29275 whole entry): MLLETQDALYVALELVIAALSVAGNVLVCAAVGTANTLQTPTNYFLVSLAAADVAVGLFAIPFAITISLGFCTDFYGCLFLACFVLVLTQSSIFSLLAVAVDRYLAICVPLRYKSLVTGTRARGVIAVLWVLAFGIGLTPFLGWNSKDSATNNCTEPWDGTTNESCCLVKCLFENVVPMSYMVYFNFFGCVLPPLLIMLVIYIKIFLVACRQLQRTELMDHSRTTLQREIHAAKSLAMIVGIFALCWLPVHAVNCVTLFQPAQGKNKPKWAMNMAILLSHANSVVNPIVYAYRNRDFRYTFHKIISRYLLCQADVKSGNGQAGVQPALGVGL

Compound	Ratio (adenosine A2B receptor; [1])	IC50 (adenosine A2B receptor) [nM]	IC50 (adenosine A2A receptor) [nM]	Ratio (adenosine A2B receptor; [2])
C[C@H](Nc1nc(C(=O)NC2COC2)c2sccc2n1)c1ccccn1 [Example Z194, (S)—N-(Oxetan-3-yl)-2-((1-(pyridin-2-yl)ethyl)amino)thieno[3,2-d]pyrimidine-4-carboxamide]	–	10 to 50	100 to 500	5.79
C[C@H](Nc1nc(C(=O)NCc2cncc(C(F)(F)F)c2)c2sccc2n1)c1ccccn1 [Example Z200, (S)-2-((1-(Pyridin-2-yl)ethyl)amino)-N-((5-(trifluoromethyl)pyridin-3-yl)methyl)thieno[3,2-d]pyrimidine-4-carboxamide]	–	100 to 500	100 to 500	1.81
CC(=O)N[C@@H]1CCN(C(=O)c2nc(N[C@@H](C)c3cncc(F)c3)nc3ccsc23)C1 [Example Z319, N—((R)-1-(2-(((S)-1-(5-Fluoropyridin-3-yl)ethyl)amino)thieno[3,2-d]pyrimidine-4-carbonyl)pyrrolidin-3-yl)acetamide]	–	50 to 100	> 500	22.72
COC[C@@H](Nc1nc(C(=O)NC[C@H](C)O)c2sccc2n1)c1cccnc1 [Example Z320, N—((S)-2-Hydroxypropyl)-2-(((S)-2-methoxy-1-(pyridin-3-yl)ethyl)amino)thieno[3,2-d]pyrimidine-4-carboxamide]	–	50 to 100	100 to 500	3.92
C[C@H](Nc1nc(C(=O)NCc2ncc[nH]2)c2sccc2n1)c1ccccn1 [Example Z304, (S)—N-((1H-Imidazol-2-yl)methyl)-2-((1-(pyridin-2-yl)ethyl)amino)thieno[3,2-d]pyrimidine-4-carboxamide]	–	100 to 500	100 to 500	2.03
CCC(NC(=O)c1nc(N[C@@H](C)c2cccnc2)nc2ccsc12)c1cccnc1 (stereo partly drawn) [Example Z24, 2-(((S)-1-(Pyridin-3-yl)ethyl)amino)-N-(1-(pyridin-3-yl)propyl)thieno[3,2-d]pyrimidine-4-carboxamide]	–	100 to 500	> 500	2.92
COc1ccc(CNC(=O)c2nc(NCc3cncc(F)c3)nc3ccsc23)cn1 [Example Z67, 2-(((5-Fluoropyridin-3-yl)methyl)amino)-N-((6-methoxypyridin-3-yl)methyl)thieno[3,2-d]pyrimidine-4-carboxamide]	–	10 to 50	100 to 500	–
C[C@H](Nc1nc(C(=O)NCc2nccn2C)c2sccc2n1)c1ccccn1 [Example Z290, (S)—N-((1-Methyl-1H-imidazol-2-yl)methyl)-2-((1-(pyridin-2-yl)ethyl)amino)thieno[3,2-d]pyrimidine-4-carboxamide]	–	> 500	> 500	1.63
Cc1cc2nc(N[C@@H](C)c3cccnc3)nc(C(=O)NC[C@@H]3CCOC3)c2s1 [Example Z387, 6-Methyl-2-(((S)-1-(pyridin-3-yl)ethyl)amino)-N—(((S)-tetrahydrofuran-3-yl)methyl)thieno[3,2-d]pyrimidine-4-carboxamide]	–	50 to 100	> 500	20.10
C[C@H](Nc1nc(C(=O)N2CC[C@H](S(C)(=O)=O)C2)c2sccc2n1)c1ccccn1 [Example Z274]	–	100 to 500	100 to 500	1.11
CC(=O)N[C@@H]1CCN(C(=O)c2nc(N[C@@H](C)c3cccnc3)nc3ccsc23)C1 [Example Z316, N—((R)-1-(2-(((S)-1-(Pyridin-3-yl)ethyl)amino)thieno[3,2-d]pyrimidine-4-carbonyl)pyrrolidin-3-yl)acetamide]	–	> 500	> 500	2.06
COc1ccc(CNc2nc(C(=O)N3CCCC3)c3sccc3n2)cc1OC [Example Z38, (2-((3,4-Dimethoxybenzyl)amino)thieno[3,2-d]pyrimidin-4-yl)(pyrrolidin-1-yl)methanone]	–	> 500	> 500	1.00
CS(=O)(=O)[C@@H]1CCN(C(=O)c2nc(NCc3cncc(F)c3)nc3ccsc23)C1 [Example Z261, (R)-(2-(((5-Fluoropyridin-3-yl)methyl)amino)thieno[3,2-d]pyrimidin-4-yl)(3-(methylsulfonyl)pyrrolidin-1-yl)methanone]	–	100 to 500	> 500	10.23
N[C@H]1CCN(C(=O)c2nc(NCc3cncc(F)c3)nc3ccsc23)C1 [Example Z360, (S)-(3-Aminopyrrolidin-1-yl)(2-(((5-fluoropyridin-3-yl)methyl)amino)thieno[3,2-d]pyrimidin-4-yl)methanone]	–	100 to 500	> 500	72.24
C[C@H](Nc1nc(C(=O)N2CCCCC2)c2sccc2n1)c1cccnc1 [Example Z31, (S)-Piperidin-1-yl(2-((1-(pyridin-3-yl)ethyl)amino)thieno[3,2-d]pyrimidin-4-yl)methanone]	–	100 to 500	> 500	40.00

Continued, values first:

Ratio (adenosine A2B receptor; [1])	IC50 (adenosine A2B receptor) [nM]	IC50 (adenosine A2A receptor) [nM]	Ratio (adenosine A2B receptor; [2])	Compound
0.18	100 to 500	50 to 100	–	COc1ccc([C@H](C)Nc2nc(C(=O)N3CC(NC(=O)OC(C)C)C3)c3sc(C)cc3n2)cc1 [Example Z555, Isopropyl (S)-(1-(2-((1-(4-methoxyphenyl)ethyl)amino)-6-methylthieno[3,2-d]pyrimidine-4-carbonyl)azetidin-3-yl)carbamate]
2.90	10 to 50	100 to 500	–	C[C@H](Nc1nc(C(=O)N2CC(C(=O)OC(C)(C)C)C2)c2sccc2n1)c1cncc(F)c1 [Example Z572, tert-Butyl (S)-1-(2-((1-(5-fluoropyridin-3-yl)ethyl)amino)thieno[3,2-d]pyrimidine-4-carbonyl)azetidine-3-carboxylate]
1.63	50 to 100	100 to 500	–	CC(C)NC(=O)N1CCN(C(=O)c2nc(N[C@@H](C)c3cncc(F)c3)nc3ccsc23)C1 [Example Z587, (S)-3-(2-((1-(5-Fluoropyridin-3-yl)ethyl)amino)thieno[3,2-d]pyrimidine-4-carbonyl)-N-isopropylimidazolidine-1-carboxamide]
12.22	50 to 100	> 500	–	CO[C@H](C)CNC(=O)c1nc(N[C@@H](C)c2cccnc2)nc2cc(C)sc12 [Example Z400, N—((R)-2-Methoxypropyl)-6-methyl-2-(((S)-1-(pyridin-3-yl)ethyl)amino)thieno[3,2-d]pyrimidine-4-carboxamide]
7.81	50 to 100	100 to 500	–	COC[C@@H]1CCN(C(=O)c2nc(N[C@@H](C)c3ccccn3)nc3ccsc23)C1 [Example Z471, ((R)-3-(Methoxymethyl)pyrrolidin-1-yl)(2-(((S)-1-(pyridin-2-yl)ethyl)amino)thieno[3,2-d]pyrimidin-4-yl)methanone]
58.55	10 to 50	> 500	–	CCNC1CN(C(=O)c2nc(N[C@@H](C)c3cncc(F)c3)nc3cc(C)sc23)C1 [Example Z574, (S)-(3-(Ethylamino)azetidin-1-yl)(2-((1-(5-fluoropyridin-3-yl)ethyl)amino)-6-methylthieno[3,2-d]pyrimidin-4-yl)methanone]
–	> 500	> 500	11.51	C[C@H](Nc1nc(C(=O)NC2CNC2)c2sccc2n1)c1cncc(F)c1 [Example Z397, (S)—N-(Azetidin-3-yl)-2-((1-(5-fluoropyridin-3-yl)ethyl)amino)thieno[3,2-d]pyrimidine-4-carboxamide]
